Columns and labels:
Staphylococcus aureus [1] = assay: Antibacterial activity against Staphylococcus aureus ATCC 12600 assessed as growth inhibition by broth microdilution method; type: functional
Pseudomonas aeruginosa [2] = assay: Antibacterial activity against Pseudomonas aeruginosa ATCC 10145 assessed as growth inhibition after 24 to 48 hrs by kirby-bauer disc diffusion method; type: functional; also: test concentration or dose not given here
Staphylococcus aureus [3] = assay: Antibacterial activity against Staphylococcus aureus ATCC 12600 assessed as growth inhibition after 24 to 48 hrs by kirby-bauer disc diffusion method; type: functional; also: test concentration or dose not given here
Pseudomonas aeruginosa [4] = assay: Antibacterial activity against Pseudomonas aeruginosa ATCC 10145 assessed as growth inhibition by broth microdilution method; type: functional
HepG2 = assay: Cytotoxicity against human HepG2 cells assessed as cell survival after 48 hrs by SRB assay; type: functional, cell-based; settings: HepG2, 48 h
MCF7 = assay: Cytotoxicity against human MCF7 cells assessed as cell survival after 48 hrs by SRB assay; type: functional, cell-based; settings: MCF7, 48 h
Escherichia coli = assay: Antibacterial activity against Escherichia coli ATCC 11775 assessed as growth inhibition after 24 to 48 hrs by kirby-bauer disc diffusion method; type: functional, DSM 30083 = JCM 1649; also: test concentration or dose not given here
Bacillus subtilis = assay: Antibacterial activity against Bacillus subtilis ATCC 6051 assessed as growth inhibition after 24 to 48 hrs by kirby-bauer disc diffusion method; type: functional; also: test concentration or dose not given here

MIC (Staphylococcus aureus [1]) | MIC (Pseudomonas aeruginosa [4]) | Structure (SMILES) | diameter of the inhibition zone (DIZ) (Pseudomonas aeruginosa [2]) | diameter of the inhibition zone (DIZ) (Staphylococcus aureus [3]) | IC50 (HepG2) | IC50 (MCF7) | diameter of the inhibition zone (DIZ) (Escherichia coli) | diameter of the inhibition zone (DIZ) (Bacillus subtilis)
8 µg/mL | 11 µg/mL | COc1cc(-c2nc3sc4c(c3c(=O)n2-c2ccc3c(C)c5ccc(N)cc5nc3c2)CCCC4)cc(OC)c1OC | 25 mm | 26 mm | 5.5 µM | 0.86 µM | 22 mm | 23 mm
13 µg/mL | 18 µg/mL | Cc1c2ccc(N)cc2nc2cc(-n3c(/C=C/c4ccccc4)nc4sc5c(c4c3=O)CCCC5)ccc12 | 21 mm | 24 mm | 5.82 µM | 0.19 µM | 21 mm | 20 mm

— ChEMBL document CHEMBL2401715, “Synthesis, antitumor and antibacterial activities of some novel tetrahydrobenzo[4,5]thieno[2,3-d]pyrimidine derivatives” (Eur J Med Chem, 2013)
